Where two headings read alike, the source gives them in different places.
Assays:
SSc fibroblasts = assay: Fibrotic gene expression in SSc skin fibroblasts (real time PCR); type: cell-based, human; details: 24 hours
Method: Cell cultures: Human normal and scleroderma skin fibroblasts were cultured in DMEM containing 10% fetal bovine serum (FBS). The cells were maintained in a humidified 5% CO2, 95% air incubator at 37° C. After confluence was reached, the cells were harvested with 0.05% trypsin and subcultured. Cells were used in the 3rd-5th passage.
Experimental design: Cells were grown to 70-80% confluence and placed into quiescent state by a reduction in serum concentration to 0.4% for overnight. The effects of the compound on TGFβ fibrotic effects and on NL and SSc fibrotic gene expression were tested.
Effects of the compound on SSc-FB: SSc fibrobasts were treated with the compound at different concentration and gene expression levels of Collagen 1A1 (COL1), α-smooth muscle actin (α-SMA), fibronectin (FN), matrix metallopeptidase 1 (MMP1), plasminogen activator inhibitor (PAI), and DNA (cytosine-5-)-methyltransferase 1 (Dnmt1) were determined 24 hours later by real time PCR.
Quantitative Real-Time PCR: Total RNA was extracted from cells using RNeasy kit. RNA concentration was measured and 1 ug of RNA was reverse transcribed to cDNA using RT-First strand kit. The cDNA was then amplified using respective primers and Power SYBR Green PCR Master Mix. The amplicon (150-200 bp) was detected by ABI 7500 Real Time PCR System. All the target genes were normalized to GAPDH and relative fold changes were calculated. Each sample was assessed in triplicate.

MRL/MpJ-Faslpr/J mouse = MRL/MpJ-Faslpr/J mouse model of systemic lupus erythematosus; type: in vivo; details: 30 mg/kg; week 4
H929 MM cell lines = assay: Cell proliferation in lenalidomide-sensitive and resistant H929 MM cells (7-AAD); type: cell-based; details: Homo sapiens, NCI-H929, 120 h, 5 days, read-out: IC50 for inhibition of proliferation
Method: CRBN ubiquitination was measured in HEK293T cells, which were transfected with an amino-terminal His-biotin-tagged CRBN construct, then preincubated with compounds for one hour followed by treatment with the MG132 proteasome inhibitor (to arrest degradation of ubiquitinated proteins). Cells were lysed and processed to measure CRBN ubiquitination by SDS-PAGE and immunoblot analysis using an anti-ubiquitin antibody. Cell proliferation studies were conducted in enalidomide-sensitive and refractory multiple myeloma cells. Lenalidomide-resistant or sensitive H929 MM cell lines were treated with Compound IA for 5 days, and then cell proliferation and viability were assessed by 7-aminoactinomycin D (“7-ADD”) staining. T-cell costimulation was measured in purified primary human T cells stimulated using immobilized anti-CD3 antibody in cell culture for 2 days, and cytokine secretion was measured by ELISA.

DBA/2 mice = assay: Bleomycin-induced dermal fibrosis mouse model (regression of established fibrosis); type: in vivo; details: 30 mg/kg, PO, QD
Method: DBA/2 mice were used in this study. Eight animals were used per treatment group in the study. Mice were kept in the animal house under standard conditions with food and water ad libidum.
The compound was suspended, not dissolved, in this vehicle. The formulation was homogenized with a Teflon pestle and mortar (Potter-Elvehjem tissue grinder) using a motorized Eberbach tissue homogenizer. The daily drug stock concentration used in these studies was 3 mg/ml.
Bleomycin was obtained from the pharmacy of the University of Erlangen-Nuremberg and freshly prepared once a week. Skin fibrosis was induced in 6-week-old DBA mice by local intracutaneous injections of 100 μl of bleomycin dissolved in 0.9% NaCl, at a concentration of 0.5 mg/ml, every other day in defined areas of 1.5 cm^2 on the upper back.
To evaluate regression of fibrosis, a modified model of bleomycin induced dermal fibrosis was used. Mice were pre-challenged with bleomycin to induce a robust skin fibrosis. One group received treatment with the test compound, while challenge with bleomycin was ongoing for additional three weeks. The outcome of this group was compared to mice challenged with bleomycin for six weeks (prevention of further progression) and to mice challenged with bleomycin for three weeks followed by NaCl for additional three weeks (induction of regression). The following groups were used in the regression study: • Control group: Intradermal injection of NaCl for six weeks. Control treatment consisted of administration of the vehicle. • Untreated bleomycin group 1 (regression): Intradermal injection of bleomycin for three weeks followed by intradermal injections of NaCl for another three weeks. Treatment consisted of administration of the vehicle. […]
Dermal thickness was determined by staining with hematoxylin and eosin and activated fibroblasts by using immunohistochemistry for alpha smooth muscle actin (α-SMA). The dermal thickness, as determined by the modified Rodnan Skin Score, is currently the most common primary outcome in human clinical trials for anti-fibrotic agents in SSc. […] Dermal thickness was analyzed with a Nikon Eclipse 80i microscope (Nikon, Badhoevedorp, The Netherlands) by measuring the maximal distance between the epidermal-dermal junction and the dermal-subcutaneous fat junction at 4 different skin sections in each mouse. […]
For quantification of myofibroblasts, skin sections were deparaffinized and incubated with 5% bovine serum albumin for 60 minutes. Cells positive for α-SMA were detected by incubation with monoclonal anti-α-SMA antibodies (clone 1A4; Sigma-Aldrich, Steinheim, Germany) for 2 hours at room temperature followed by incubation with 3% hydrogen peroxide for 10 minutes. […]

IgJ = assay: Ig J chain intracellular staining in B cell differentiation culture; type: cell-based, human
Method: Immunophenotyping For Flow Cytometric Analysis: Cells were stained using multicolor direct immunofluorescence stain for flow cytometric analysis. Surface staining was performed before cell fixation and permeabilization. Cells (50 μl; 1×10^6 cells/ml in washing buffer, 2% FBS with 0.1% NaN3 in PBS) were used for each staining. The cells were stained with isotype control mAb ([…]) and multicolor FITC-conjugated anti-CD20 mAb and PE-conjugated anti-CD38 mAb, or PerCP-Cy5.5 conjugated anti-CD44 mAb, PE-conjugated anti-CD83 mAb were used for day 4 activated B cells (CD20+CD38-cells), and day 4 PBs and day 7 PBs (CD20-CD38+), and other staining, analyzed by flow cytometry as per manufacturer's instructions. The intracellular staining of transcription factor proteins (BCL-6, IRF-4, BLIMP-1, PAX-5 and XBP-1) and IgJ was performed according to the manufacturer's recommendations. Flow cytometric analysis was performed with a FACSCanto using FACSDiva 6 (BD Biosciences). For data analysis, Flowjo (Tree Star) software was used.
High level IgJ chain expression in rheumatoid arthritis (RA) patients predicts lack of response to rituximab.

`O=C1CC[C@H](N2Cc3c(OCc4ccc(CN5CCOCC5)cc4)cccc3C2=O)C(=O)N1` [Test compound, (S)-3-[4-(4-morphlin-4-ylmethylbenzyloxy)-1-oxo-1,3-dihydro-isoindo-2-yl]piperidine-2,6-dione] was tested, and the “expression of COL1 mRNA” value (SSc fibroblasts) was “dose dependently reduced”, the “expression of Dnmt1” value (SSc fibroblasts) was “dose dependently reduced” and the “expression of FN mRNA” value (SSc fibroblasts) was “dose dependently reduced”. The “expression of MMP-1” value (SSc fibroblasts) was “dose dependently increased”, the “expression of PAI” value (SSc fibroblasts) was “dose dependently reduced” and the “expression of aSMA mRNA” value (SSc fibroblasts) was “dose dependently reduced”. For the same molecule, the “Splenic B cells, increase” value (MRL/MpJ-Faslpr/J mouse) was 37%, the “anti-double stranded DNA autoantibody level, decrease” value (MRL/MpJ-Faslpr/J mouse) was 25% and the “peripheral blood B cells” value (MRL/MpJ-Faslpr/J mouse) was “no change”. The IC50 (H929 MM cell lines; DMSO-treated subclone) was 40 nM, the IC50 (H929 MM cell lines; lenalidomide resistant subclones) was 510 to 1580 nM and the IC50 (H929 MM cell lines; parental H929 cell line) was 10 nM. The dermal thickening (DBA/2 mice) was “no effect”, the numbers of myofibroblasts (DBA/2 mice) was “did not have an effect” and the “MFI of IgJ within the positive cells” value (IgJ) was “decreased”. The “number of IgJ-positive cells” value (IgJ; Day 4, 20 nM, DMSO 13.1%±1.5%) was 8.4%, the “number of IgJ-positive cells” value (IgJ; Day 4, 200 nM, DMSO 13.1%±1.5%) was 5.4% and the “Ig J chain expression” value (IgJ; Day 4 B cell differentiation cultures, three donors) was “dose-dependently and significantly reduced”. The “number of IgJ-positive cells” value (IgJ; Day 7, 20 nM, DMSO 14.4%±4.3) was 13.2% and the “number of IgJ-positive cells” value (IgJ; Day 7, 200 nM, DMSO 14.4%±4.3) was 7.2%.
